Source: ChEMBL document CHEMBL1811854, “Phenolic compounds from the roots of Jordanian viper's grass, Scorzonera judaica” (J Nat Prod, 2011)

Legend:
Format in all cases: functional, cell-based
Jurkat = experiment: Cytotoxicity against human Jurkat cells by MTT assay
MCF7 = experiment: Cytotoxicity against human MCF7 cells by MTT assay
HeLa = experiment: Cytotoxicity against human HeLa cells by MTT assay

Measured: IC50

O=C(O)c1c(O)cccc1/C=C/c1ccc(O[C@@H]2O[C@H](CO)[C@@H](O)[C@H](O)[C@H]2O)cc1
> 100 µM: Jurkat | MCF7 | HeLa

O=C(Cc1cccc(O)c1C(=O)O)c1ccc(O)cc1
> 100 µM: Jurkat | MCF7 | HeLa

O=C1OC(c2ccc(O)c(O)c2)C/C1=C\c1ccc(O)c(O)c1 (configuration not stated)
> 100 µM: Jurkat | MCF7 | HeLa

O=C(Cc1cccc(O)c1C(=O)O)c1ccc(O)c(O)c1
> 100 µM: Jurkat | MCF7 | HeLa

O=C1OC(c2ccc(O)c(O)c2)=C/C1=C/c1ccc(O)c(O)c1
> 100 µM: Jurkat | MCF7 | HeLa

C[C@@H]1O[C@@H](O[C@@H]2[C@@H](O)[C@H](Oc3ccc([C@@H]4Cc5cccc(O)c5C(=O)O4)cc3)O[C@H](CO)[C@H]2O)[C@H](O)[C@H](O)[C@H]1O
> 100 µM: Jurkat | MCF7 | HeLa

O=C1O/C(=C\c2ccc(O)c(O)c2)c2cccc(O[C@@H]3O[C@H](CO)[C@@H](O)[C@H](O)[C@H]3O)c21
> 100 µM: Jurkat | MCF7 | HeLa

COc1cc([C@H]2O[C@H](O[C@@H]3O[C@H](CO)[C@@H](O)[C@H](O)[C@H]3O)[C@H]3[C@H]2CO[C@H]3c2ccc(O)c(OC)c2)ccc1O
> 100 µM: Jurkat | MCF7 | HeLa

COc1cc(C(=O)Cc2cccc(O)c2C(=O)O)cc(O)c1O
> 100 µM: Jurkat | MCF7 | HeLa
